# In patent US11753432B2, “Compound with analgesic effect for use in prevention and treatment of pain” (Academia Sinica, priority 2017, dated 2023):
# Tests used:
# [1] = Tolerated dose / safety range in the ICS mouse model; type: in vivo
# Procedure: Female C57BL/6JNarl mice aged 8-12 weeks were purchased from the National Laboratory Animal Center (Taipei, Taiwan). […] Mechanical hyperalgesia was assayed by testing the withdrawal response of mouse hindpaws to 0.2-mN von Frey filament stimulation.
# [2] = test system: mouse model of fibromyalgia (chronic widespread pain induced by intermittent cold stress); assay: Intermittent cold stress (ICS) mouse model of fibromyalgia; mechanical hyperalgesia, hindpaw withdrawal to 0.2-mN von Frey filament; type: in vivo, mice (female C57BL/6JNarl); details: for tolerance / therapeutic effect on repeated treatment: 1 mg/kg p.o. once a day for 4 days from day 5 after ICS
# Procedure: Female C57BL/6JNarl mice aged 8-12 weeks were purchased from the National Laboratory Animal Center (Taipei, Taiwan). The fibromyalgia model was developed by Ueda's group, in which mice were treated with intermittent cold stress for 2 days (Nishiyori, M.; Ueda, H. Prolonged gabapentin analgesia in an experimental mouse model of fibromyalgia. Mol. Pain 2008, 4, 52). Mice treated with intermittent cold stress developed long-lasting (>2 weeks) mechanical and thermal hyperalgesia. Analgesic effects of compound I-a1 (JMF3737) via i.p. (in 0.5% HPβCD) or p.o. (in 1% HPβCD) routes and compound I-d1 (JMF4413) via i.p. (in 0.5% HPβCD) were tested in these mice 5 days after intermittent cold stress. Mechanical hyperalgesia was assayed by testing the withdrawal response of mouse hindpaws to 0.2-mN von Frey filament stimulation.
# [3] = molecular target: T1, NK1R receptor in muscle nociceptors (Mus musculus, UniProt P30548); assay: Whole-cell patch clamp recording on muscle nociceptors (outward current); type: cell-based
# T1 construct: whole-cell patch clamp recording on muscle nociceptors; endogenous in cells; host or cells: muscle nociceptors (primary sensory neurons; preparation not described)
# T1 sequence (P30548 whole entry): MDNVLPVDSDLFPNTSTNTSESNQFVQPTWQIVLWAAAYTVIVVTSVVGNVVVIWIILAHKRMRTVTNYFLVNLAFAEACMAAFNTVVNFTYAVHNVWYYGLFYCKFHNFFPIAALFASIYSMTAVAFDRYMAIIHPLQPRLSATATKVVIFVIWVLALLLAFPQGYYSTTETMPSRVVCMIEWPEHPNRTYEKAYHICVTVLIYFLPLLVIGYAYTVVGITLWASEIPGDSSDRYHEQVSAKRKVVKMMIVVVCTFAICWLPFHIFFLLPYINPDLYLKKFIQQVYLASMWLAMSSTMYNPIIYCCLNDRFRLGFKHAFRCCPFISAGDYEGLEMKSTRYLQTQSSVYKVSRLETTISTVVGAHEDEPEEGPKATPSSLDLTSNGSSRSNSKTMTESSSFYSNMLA
# From the text: The JMF3737-induced outward current (IJMF3737) can cause nociceptor hyperpolarization and thus counteract the acid-induced depolarization in muscle nociceptors and thus inhibit pain associated with tissue acidosis.
# [4] = Solubility; type: physicochemical
# [5] = Bioavailability; details: in vivo; read-out: bioavailability (F)
# [6] = p.o. (oral gavage), ICS mouse model
smiles,measurement,setting,value
"O=C(O)CNC(=O)OC[C@H]1O[C@@H](n2cnc3c(NCc4ccc(O)cc4)ncnc32)C(O)C1O (stereo partly drawn) [I-a1, 5′-O-(Glycine-N-carbonyl)-N^6-(4-hydroxybenzyl)adenosine]",dose without causing appreciable detrimental effect,[1]; i.p. and p.o.,at least 64 mg/kg
same,pain sensitivity to von Frey filament stimulation after repeated treatment,"[2]; 1 mg/kg oral once a day for 4 days, since day 8, n=4",decreased pain sensitivity
same,acute analgesic effect during repeated treatment,"[2]; 1 mg/kg oral once a day, day 5 to day 8, n=4",shows acute analgesic effect
same,tolerance / therapeutic effect on repeated treatment,[2],no tolerance but therapeutic effect
same,tolerance / therapeutic effect on repeated treatment,[2]; listed as JMF3737,does not cause tolerance
same,analgesic effect (in words),[2]; 2 mg (4 μmol)/kg via oral route,appreciable analgesic effect
same,analgesic effect (in words),[2]; ICS mouse model,superior analgesic effect to that of T1-11
same,"dose-dependent analgesic effect, effective dose starting from","[2]; i.p., ICS mouse model",1 mg/kg
same,"dose-dependent analgesic effect, effective dose starting from",[2]; [6],1 mg/kg
same,analgesic effect compared with T1-11,[2]; via oral route,better analgesic effect over T1-11
same,induced outward current (IJMF3737) inhibited by NK1R antagonist,"[3]; JMF3737 10 μM with RP67580 10 μM, reversible inhibition",15 pA
same,induced outward current (IJMF3737),"[3]; JMF3737 10 μM, muscle nociceptors",40 pA
"CCCCNC(=O)OC[C@H]1O[C@@H](n2cnc3c(NCc4ccc(O)cc4)ncnc32)C(O)C1O (stereo partly drawn) [Compound 8, 5′-O-(n-Butylaminocarbonyl)-N^6-(4-hydroxybenzyl)adenosine]",melting point,,187.4 to 189 °C
"O=C(O)CNC(=O)NC[C@H]1O[C@@H](n2cnc3c(NCc4ccc(O)cc4)ncnc32)C(O)C1O (stereo partly drawn) [I-d1, 5′-Deoxy-5′-(glycine-N-amido)-N^6-(4-hydroxybenzyl)adenosine]",dose without causing appreciable detrimental effect,[1]; i.p.,64 mg/kg
same,analgesic effect (in words),"[2]; 64 mg/kg via i.p. route, n=2",good analgesic effect
same,analgesic effect (in words),[2]; ICS mouse model,excellent analgesic effect
"OC[C@H]1O[C@@H](n2cnc3c(NCc4ccc(O)cc4)ncnc32)[C@H](O)[C@@H]1O [T1-11, N^6-(4-hydroxybenzyl)adenosine, reference compound]",solubility in dimethylsulfoxide (DMSO),[4],good solubility
same,analgesic effect (in words),[2]; ICS mouse model,excellent analgesic effect
same,"dose-dependent analgesic effect, effective dose starting from","[2]; i.p., ICS mouse model",0.03 mg/kg
same,"dose-dependent analgesic effect, effective dose starting from",[2]; [6],8 mg/kg
same,bioavailability,[5],~5%
